pIC50: −log10 of the molar value. “And” between values parts separate entries of the source, which are not always exact repeats. Equal values may be shown once. Values belong to the compound of their own block, whether it stands above or below them.
Test system: HSSY-II complex spheroid growth, percent test/control
Test: Anticancer human tumor HSSY-II cell line growth inhibition [Asc];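 further: spheroids exposed to drug for 7 days before reading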
Details: for viability, T/C: stronger effect = lower value
In short: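 Complex solid-tumor spheroids incorporating human endothelial and mesenchymal stem cells received single agents or combinations over half-log dilution ranges anchored to clinical Cmax.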

[1] = curve of first compound, second compound 0.1 µM
[2] = curve of first compound, second compound 0.316 µM
[3] = curve of first compound, second compound 1 µM
[4] = second compound 0.1 µM, first compound 0.0316 µM
[5] = second compound 0.1 µM, first compound 0.1 µM
[6] = second compound 0.1 µM, first compound 0.316 µM
[7] = second compound 0.1 µM, first compound 1 µM
[8] = second compound 0.316 µM, first compound 0.0316 µM
[9] = second compound 0.316 µM, first compound 0.1 µM
[10] = second compound 0.316 µM, first compound 0.316 µM
[11] = second compound 0.316 µM, first compound 1 µM
[12] = second compound 1 µM, first compound 0.0316 µM
[13] = second compound 1 µM, first compound 0.1 µM
[14] = second compound 1 µM, first compound 0.316 µM
[15] = second compound 1 µM, first compound 1 µM

pIC50 [1]: 5.61
pIC50 [2]: 5.71
pIC50 [3]: 5.82
pIC50 (curve of first compound, second compound 3.16 µM): 5.74
pIC50 (curve of first compound, second compound 10 µM): 5.84
SMILES: O=C(c1cc(Cc2n[nH]c(=O)c3ccccc23)ccc1F)N1CCN(C(=O)C2CC2)CC1 + Cc1c(S(C)(=O)=O)c(-c2cc(F)cc(N3CCN(c4ccc(NS(=O)(=O)c5ccc(NC(CCN6CCC(C(=O)OCCCP(=O)(O)O)CC6)CSc6ccccc6)c(S(=O)(=O)C(F)(F)F)c5)cc4)CC3)c2)c(-c2ccc(Cl)cc2)n1C(C)C
viability, T/C [4]: 103%
viability, T/C [5]: 98.9%
viability, T/C [6]: 93%
viability, T/C [7]: 77.8%
viability, T/C (second compound 0.1 µM, first compound 3.16 µM): 41.7%
viability, T/C (second compound 0.1 µM, first compound 10 µM): 8.94%
viability, T/C [8]: 82.7%
viability, T/C [9]: 88.3%
viability, T/C [10]: 86.8%
viability, T/C [11]: 78.1%
viability, T/C (second compound 0.316 µM, first compound 3.16 µM): 29.8%
viability, T/C (second compound 0.316 µM, first compound 10 µM): 6.49%
viability, T/C [12]: 81.8%
viability, T/C [13]: 92.8%
viability, T/C [14]: 76.2%
viability, T/C [15]: 64.1%
viability, T/C (second compound 1 µM, first compound 3.16 µM): 26.4%
viability, T/C (second compound 1 µM, first compound 10 µM): 5.63%
viability, T/C (second compound 3.16 µM, first compound 0.0316 µM): 93.2%
viability, T/C (second compound 3.16 µM, first compound 0.1 µM): 92%
viability, T/C (second compound 3.16 µM, first compound 0.316 µM): 82.5%
viability, T/C (second compound 3.16 µM, first compound 1 µM): 76%
viability, T/C (second compound 3.16 µM, first compound 3.16 µM): 26.5%
viability, T/C (second compound 3.16 µM, first compound 10 µM): 3.28%
viability, T/C (second compound 10 µM, first compound 0.0316 µM): 83.5%
viability, T/C (second compound 10 µM, first compound 0.1 µM): 90.2%
viability, T/C (second compound 10 µM, first compound 0.316 µM): 78.8%
viability, T/C (second compound 10 µM, first compound 1 µM): 66.7%
viability, T/C (second compound 10 µM, first compound 3.16 µM): 16.9%
viability, T/C (second compound 10 µM, first compound 10 µM): 2.61%

pIC50 (curve of first compound, second compound 0.01 µM): 6.23
pIC50 (curve of first compound, second compound 0.0316 µM): 6.29
pIC50 [1]: 6.33
pIC50 [2]: 6.38
pIC50 [3]: 6.29
SMILES: O=C(c1ccc(F)c(F)c1Nc1ccc(I)cc1F)N1CC(O)([C@@H]2CCCCN2)C1 + CNC(C)C(=O)NC1CN(S(=O)(=O)c2cccc(S(=O)(=O)N3CCC4CCC(C(=O)NC(c5ccccc5)c5ccccc5)N4C(=O)C(NC(=O)C(C)NC)C3)c2)CCC2CCC(C(=O)NC(c3ccccc3)c3ccccc3)N2C1=O
viability, T/C (second compound 0.01 µM, first compound 0.00316 µM): 76.6%
viability, T/C (second compound 0.01 µM, first compound 0.01 µM): 87.8%
viability, T/C (second compound 0.01 µM, first compound 0.0316 µM): 112%
viability, T/C (second compound 0.01 µM, first compound 0.1 µM): 108%
viability, T/C (second compound 0.01 µM, first compound 0.316 µM): 82.2%
viability, T/C (second compound 0.01 µM, first compound 1 µM): 22.4%
viability, T/C (second compound 0.0316 µM, first compound 0.00316 µM): 95.7%
viability, T/C (second compound 0.0316 µM, first compound 0.01 µM): 99.8%
viability, T/C (second compound 0.0316 µM, first compound 0.0316 µM): 99.2%
viability, T/C (second compound 0.0316 µM, first compound 0.1 µM): 107%
viability, T/C (second compound 0.0316 µM, first compound 0.316 µM): 69%
viability, T/C (second compound 0.0316 µM, first compound 1 µM): 24.4%
viability, T/C (second compound 0.1 µM, first compound 0.00316 µM): 93%
viability, T/C (second compound 0.1 µM, first compound 0.01 µM): 74.1%
viability, T/C [4]: 98.9%
viability, T/C [5]: 99.8%
viability, T/C [6]: 65.8%
viability, T/C [7]: 20.6%
viability, T/C (second compound 0.316 µM, first compound 0.00316 µM): 98.9%
viability, T/C (second compound 0.316 µM, first compound 0.01 µM): 100%
viability, T/C [8]: 83.1%
viability, T/C [9]: 111%
viability, T/C [10]: 59.2%
viability, T/C [11]: 20.4%
viability, T/C (second compound 1 µM, first compound 0.00316 µM): 98.3%
viability, T/C (second compound 1 µM, first compound 0.01 µM): 114%
viability, T/C [12]: 99.7%
viability, T/C [13]: 95.1%
viability, T/C [14]: 70.7%
viability, T/C [15]: 21.9%

pIC50 (curve of compound): 5.84 and 5.80 and 5.85
SMILES: C=C(F)C(=O)N1CCN(c2nc(OCC3CCCN3C)nc3c2CCN(c2cccc4cccc(Cl)c24)C3)CC1CC#N (configuration not stated)
viability, T/C (compound 0.0316 µM): 102% and 104% and 97.2%
viability, T/C (compound 0.1 µM): 100% and 111% and 98.8%
viability, T/C (compound 0.316 µM): 89.8% and 89.1% and 90.5%
viability, T/C (compound 1 µM): 70.2% and 80.1% and 70%
viability, T/C (compound 3.16 µM): 5.2% and 4.65% and 3.69%
viability, T/C (compound 10 µM): 0.22% and 0.2% and 0.21%

pIC50 (curve of first compound, second compound 0.03 µM): 7.98
pIC50 (curve of first compound, second compound 0.0949 µM): 8.51
pIC50 (curve of first compound, second compound 0.3 µM): > 9.02
pIC50 (curve of first compound, second compound 0.949 µM): > 9.02
pIC50 (curve of first compound, second compound 3 µM): > 9.02
SMILES: NC(=O)C(=Cn1cnc(-c2cc(C(F)(F)F)cc(C(F)(F)F)c2)n1)c1cncnc1 + CCN1C(C(=O)NC23CCC(C(=O)O)(CC2)CC3)C(c2cccc(Cl)c2F)C2(C(=O)Nc3cc(Cl)ccc32)C12CCCCC2
viability, T/C (second compound 0.03 µM, first compound 0.000949 µM): 97.5%
viability, T/C (second compound 0.03 µM, first compound 0.003 µM): 76%
viability, T/C (second compound 0.03 µM, first compound 0.00949 µM): 51.1%
viability, T/C (second compound 0.03 µM, first compound 0.03 µM): 31.9%
viability, T/C (second compound 0.03 µM, first compound 0.0949 µM): 7.28%
viability, T/C (second compound 0.03 µM, first compound 0.3 µM): 0.44%
viability, T/C (second compound 0.0949 µM, first compound 0.000949 µM): 63.5%
viability, T/C (second compound 0.0949 µM, first compound 0.003 µM): 52.7%
viability, T/C (second compound 0.0949 µM, first compound 0.00949 µM): 26.6%
viability, T/C (second compound 0.0949 µM, first compound 0.03 µM): 15.9%
viability, T/C (second compound 0.0949 µM, first compound 0.0949 µM): 2.85%
viability, T/C (second compound 0.0949 µM, first compound 0.3 µM): 0.23%
viability, T/C (second compound 0.3 µM, first compound 0.000949 µM): 21.4%
viability, T/C (second compound 0.3 µM, first compound 0.003 µM): 18%
viability, T/C (second compound 0.3 µM, first compound 0.00949 µM): 11.6%
viability, T/C (second compound 0.3 µM, first compound 0.03 µM): 3.8%
viability, T/C (second compound 0.3 µM, first compound 0.0949 µM): 0.31%
viability, T/C (second compound 0.3 µM, first compound 0.3 µM): 0.12%
viability, T/C (second compound 0.949 µM, first compound 0.000949 µM): 7.25%
viability, T/C (second compound 0.949 µM, first compound 0.003 µM): 5.2%
viability, T/C (second compound 0.949 µM, first compound 0.00949 µM): 2.01%
viability, T/C (second compound 0.949 µM, first compound 0.03 µM): 0.49%
viability, T/C (second compound 0.949 µM, first compound 0.0949 µM): 0.03%
viability, T/C (second compound 0.949 µM, first compound 0.3 µM): 0.14%
viability, T/C (second compound 3 µM, first compound 0.000949 µM): 2.04%
viability, T/C (second compound 3 µM, first compound 0.003 µM): 1.1%
viability, T/C (second compound 3 µM, first compound 0.00949 µM): 0.3%
viability, T/C (second compound 3 µM, first compound 0.03 µM): 0.2%
viability, T/C (second compound 3 µM, first compound 0.0949 µM): 0.16%
viability, T/C (second compound 3 µM, first compound 0.3 µM): 0.26%
